For test [1], the target named is T1, human MR (mineralocorticoid receptor) (Homo sapiens, UniProt P08235).
T1 construct: expressed in transfected cells; host or cells: HEK293 (293-MR lysate)
T1 sequence (P08235 1-984): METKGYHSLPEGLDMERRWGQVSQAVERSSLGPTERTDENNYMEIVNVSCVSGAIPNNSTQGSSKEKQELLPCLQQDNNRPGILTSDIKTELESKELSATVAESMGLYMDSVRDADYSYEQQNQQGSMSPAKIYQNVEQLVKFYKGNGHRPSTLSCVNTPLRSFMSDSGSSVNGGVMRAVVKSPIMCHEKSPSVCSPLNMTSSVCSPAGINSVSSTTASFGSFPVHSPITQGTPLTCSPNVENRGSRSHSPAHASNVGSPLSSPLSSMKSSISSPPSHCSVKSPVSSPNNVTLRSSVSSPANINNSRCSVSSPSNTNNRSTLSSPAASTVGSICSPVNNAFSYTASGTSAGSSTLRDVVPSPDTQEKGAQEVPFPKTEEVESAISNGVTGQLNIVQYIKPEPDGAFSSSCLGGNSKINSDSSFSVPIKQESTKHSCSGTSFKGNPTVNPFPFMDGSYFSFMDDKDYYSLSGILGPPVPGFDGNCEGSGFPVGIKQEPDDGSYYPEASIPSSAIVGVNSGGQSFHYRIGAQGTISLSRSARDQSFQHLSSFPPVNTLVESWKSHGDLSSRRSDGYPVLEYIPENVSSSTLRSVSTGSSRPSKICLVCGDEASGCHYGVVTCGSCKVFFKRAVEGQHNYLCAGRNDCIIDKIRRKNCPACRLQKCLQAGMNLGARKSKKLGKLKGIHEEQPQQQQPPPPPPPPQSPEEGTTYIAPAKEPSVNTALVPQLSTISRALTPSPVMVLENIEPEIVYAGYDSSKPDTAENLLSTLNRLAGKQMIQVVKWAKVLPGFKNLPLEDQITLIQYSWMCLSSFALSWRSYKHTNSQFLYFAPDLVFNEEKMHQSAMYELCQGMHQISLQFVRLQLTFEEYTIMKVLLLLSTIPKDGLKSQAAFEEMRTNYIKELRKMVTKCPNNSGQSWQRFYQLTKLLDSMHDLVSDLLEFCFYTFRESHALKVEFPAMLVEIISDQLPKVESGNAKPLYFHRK
The experiment in a line: Nuclear hormone receptor competition binding assay, MR. The following applies: HEK293 lysate overexpressing human MR, [3H]-aldosterone; mean of n=7. How it is done:
(§1) Cell lysates from human embryonic kidney HEK293 cells overexpressing human GR (glucocorticoid receptor), AR (androgen receptor), MR (mineralocorticoid receptor), or PR (progesterone receptor) are used for receptor-ligand competition binding assays to determine Ki values.
(§2) Briefly, steroid receptor competition binding assays are run in a buffer containing 20 mM Hepes buffer (pH=7.6), 0.2 mM EDTA, 75 mM NaCl, 1.5 mM MgCl2, 20% glycerol, 20 mM sodium molybdate, 0.2 mM DTT (dithiothreitol), 20 μg/ml aprotinin and 20 μg/ml leupeptin. Typically, steroid receptor binding assays include radio-labeled ligands, such as 0.3 nM [^3H]-dexamethasone for GR binding, 0.36 nM [^3H]-methyltrienolone for AR binding, 0.25 nM [^3H]-aldosterone for MR binding, and 0.29 nM [^3H]-methyltrienolone for PR binding, and either 20 μg 293-GR lysate, 22 μg 293-AR lysate, 20 μg 293-MR lysate or 40 μg 293-PR lysate per well. Assays are typically run in 96-well format. Competing test compounds are added at various concentrations ranging from about 0.01 nM to 10 μM. Non-specific binding is determined in the presence of 500 nM dexamethasone for GR binding, 500 nM aldosterone for MR binding, or 500 nM methyltrienolone for AR and PR binding. […] After an incubation of 2 hours, plates are read in a Wallac Microbeta counter. […]

Test [2] has as its target T2, human PR (progesterone receptor) (Homo sapiens, UniProt P06401).
T2 construct: expressed in transfected cells; host or cells: HEK293 (293-PR lysate)
T2 sequence (P06401 1-933): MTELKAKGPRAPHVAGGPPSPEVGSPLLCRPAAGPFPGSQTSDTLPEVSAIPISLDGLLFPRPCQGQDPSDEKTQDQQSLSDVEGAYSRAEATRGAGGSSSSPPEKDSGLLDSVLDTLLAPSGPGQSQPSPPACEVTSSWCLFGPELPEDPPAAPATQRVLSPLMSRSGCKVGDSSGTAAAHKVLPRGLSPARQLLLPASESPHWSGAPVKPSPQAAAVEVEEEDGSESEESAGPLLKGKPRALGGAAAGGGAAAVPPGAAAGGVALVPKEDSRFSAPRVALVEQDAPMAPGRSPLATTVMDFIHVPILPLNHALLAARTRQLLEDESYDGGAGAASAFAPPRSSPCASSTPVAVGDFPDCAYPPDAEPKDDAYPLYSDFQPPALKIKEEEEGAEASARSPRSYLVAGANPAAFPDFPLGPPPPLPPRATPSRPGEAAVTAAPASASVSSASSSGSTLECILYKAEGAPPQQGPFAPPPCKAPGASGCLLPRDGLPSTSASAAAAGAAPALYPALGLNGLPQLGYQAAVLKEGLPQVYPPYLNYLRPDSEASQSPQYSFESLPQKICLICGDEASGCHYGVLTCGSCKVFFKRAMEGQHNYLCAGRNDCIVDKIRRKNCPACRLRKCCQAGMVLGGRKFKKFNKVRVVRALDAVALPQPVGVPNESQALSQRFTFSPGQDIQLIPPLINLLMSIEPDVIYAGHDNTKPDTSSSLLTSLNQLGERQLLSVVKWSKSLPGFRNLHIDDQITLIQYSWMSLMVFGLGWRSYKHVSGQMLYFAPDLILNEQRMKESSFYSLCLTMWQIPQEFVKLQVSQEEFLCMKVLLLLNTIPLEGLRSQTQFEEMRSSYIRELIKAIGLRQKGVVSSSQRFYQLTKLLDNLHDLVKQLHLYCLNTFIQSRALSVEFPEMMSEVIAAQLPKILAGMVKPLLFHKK
The test can be described thus: Nuclear hormone receptor competition binding assay, PR. The note with it: HEK293 lysate overexpressing human PR, [3H]-methyltrienolone; mean of n=7. As for the experimental part:
as §1, §2

The source of these data is US8101761B2, “(E)-N-{3-[1-(8-fluoro-11H-10-OXA-1-AZA-dibenzo [A,D] cyclohepten-5ylidene)-propyl]-phenyl}-methanesulfonamide as glucocorticoid receptor modulator for the treatment of rheumatoid arthritis” (Eli Lilly and Company, priority 2008, dated 2012).

In general, Ki refers to a dissociation constant, usually derived from enzyme kinetics or from competition with a known ligand. The low end stands for a stronger hold on the target, the high end for a looser hold on the target.

Consider `CC/C(=C1\c2ccc(F)cc2OCc2ncccc21)c1cccc(NS(C)(=O)=O)c1` [Compound (I), (E)-N-{3-[1-(8-Fluoro-11H-10-oxa-1-aza-dibenzo[a,d]cyclohepten-5-ylidene)-propyl]-phenyl}-methanesulfonamide], for which the results for the Ki in test [1] and in test [2] were ~9.2 nM and ~32 nM, respectively.
